System: Staphylococcus aureus
Test: Agar-well method: growth inhibition of the indicator strain
Type: cell-based
Details: 130 μl in agar well, read-out: Radius of inhibition zone
Protocol: A parent strain, streptomyces filamentosus ATCC 31568 was cultured by slant culture at 30° C. for 12 days to collect spores, and then the spores were suspended in a physiological saline, followed by serial dilution of 10^−2, 10^−3, and 10^−4, and plating on plate media. After pre-incubation at 30° C. for 2 hours, the plates were irradiated for 118 seconds in a glove box placed at a distance of 65 cm from two 20 W UV bulbs of 280 nm wavelength. In this regard, the death rate was 99.9%. […] Colonies that survived on the agar plates at 30° C. for 6 days were collected, followed by seed culture and fermentation culture according to a method of the following Example 4. Fermentation was performed using a 500 ml-baffled flask in a shaking incubator under conditions of 30° C., 260 rpm for 7 days.
After completion of the culture, the culture broth was centrifuged. An agar-well method which is a biological detection method was used in order to examine growth inhibition of an indicator strain, Staphylococcus aureus. The agar-well method was applied to the analysis, because this method is an easy and simple method with lower errors, compared to other methods. This method is based on a principle that a diffusion rate is determined by a difference in a concentration gradient upon diffusion of a sample on an agar gel, and the radius of inhibition zone for a predetermined time is known to be proportional to the log of the concentration value. Based on this principle, antibiotic concentrations in unknown samples can be measured. This method was performed by the following procedure: before a trypticase soy broth agar medium solidified, the indicator strain Staphylococcus aureus was added thereto and uniformly suspended therein. The medium was poured into a […] and allowed to solidify. Next, wells were punched into the agar using a stainless steel borer having a diameter of 5 mm, and agar in the well was suctioned by vacuum aspiration. The amount of the sample in the agar well was 130 μl, and a control group daptomycin was prepared and used in an amount of 0, 50, 100, 200, 300, and 1000 μg/ml.

CCCCCCCCCC(=O)N[C@@H](Cc1c[nH]c2ccccc12)C(=O)N[C@H](CC(N)=O)C(=O)N[C@@H](CC(=O)O)C(=O)N[C@@H]1C(=O)NCC(=O)N[C@@H](CCCN)C(=O)N[C@@H](CC(=O)O)C(=O)N[C@H](C)C(=O)N[C@@H](CC(=O)O)C(=O)NCC(=O)N[C@H](CO)C(=O)N[C@@H]([C@H](C)CC(=O)O)C(=O)N[C@@H](CC(=O)c2ccccc2N)C(=O)O[C@@H]1C [Daptomycin, daptomycin]
zone of inhibition at 50 µg/mL (Daptomycin control 0.05 mg/ml): 8.6 mm
zone of inhibition at 100 µg/mL (Daptomycin control 0.10 mg/ml): 10.6 mm
zone of inhibition at 200 µg/mL (Daptomycin control 0.20 mg/ml): 12 mm
zone of inhibition at 300 µg/mL (Daptomycin control 0.30 mg/ml): 13.2 mm
zone of inhibition at 1000 µg/mL (Daptomycin control 1.00 mg/ml): 16 mm

Reference: US10301690B2, “Streptomyces filamentosus variant and method for producing daptomycin using same” (priority 2013, dated 2019)
